From patent publication US12252480B2, “Salt forms and polymorphs of (R)-1-(4-(6-(2-(4-(3,3-difluorocyclobutoxy)-6-methylpyridin-2-yl)acetamido) pyridazin-3-yl)-2-fluorobutyl)-n-methyl-1H-1,2,3-triazole-4-carboxamide” (Board of Regents, The University of Texas System, priority 2015, dated 2025)

Legend:
[1] = test system: A549 cells; assay: Proliferation Assay (A549, Cell Titer Fluor); format: cell-based; settings: Homo sapiens, 72 hours incubation, read-out: EC50 against A549 cell proliferation
Experimental: Proliferation Assay. A549 cells were routinely maintained in RPMI 1640 media (Gibco catalog number 11875-093) supplemented with 10% dialyzed fetal bovine serum using a humidified incubator (37° C., 5% CO2 and ambient O2). In preparation for the viability assay, cells were inoculated into 384-well black CulturPlates (Perkin Elmer) at a density of 1000 cells/well in a volume of 40 uL. Following a 24-hour incubation at 37° C., 5% CO2 and ambient O2, cells were treated with compound (10 uL) in a final DMSO concentration of 0.5% (v/v). The microplates were then incubated for 72 hours (37° C., 5% CO2 and ambient O2). Cell Titer Fluor (Promega) was subsequently added (10 uL of 6× reagent) and mixed for 15 minutes at room temperature. The plates were then incubated for 30 minutes (37° C., 5% CO2 and ambient O2) and fluorescence was subsequently read on the Perkin Elmer Envision plate reader. IC50 values were calculated using a four-parameter logistic curve fit.

[2] = Dynamic Vapor Sorption (DVS); format: physicochemical
Experimental: Dynamic Vapor Sorption (DVS) was examined with an SMS Advantage instrument. About 10 mg of sample was transferred into the instrument, and the weight change with respect to the atmospheric humidity at 25° C. was recorded accordingly, with the following parameters: Equilibrium: dm/dt: 0.01%/min. (for min: 10 min and max: 180 min); drying: 0% RH for 120 min; RH (%) measurement step: 10%; RH (%) measurement step scope: 0-90-0%.

SMILES: CNC(=O)c1cn(C[C@H](F)CCc2ccc(NC(=O)Cc3cc(OC4CC(F)(F)C4)cc(C)n3)nn2)nn1 [Example 1, (R)-1-(4-(6-(2-(4-(3,3-difluorocyclobutoxy)-6-methylpyridin-2-yl)acetamido)pyridazin-3-yl)-2-fluorobutyl)-N-methyl-1H-1,2,3-triazole-4-carboxamide]
- EC50 [1]: < 100 nM

SMILES: CNC(=O)c1cn(C[C@H](F)CCc2ccc(NC(=O)Cc3cc(OC4CC(F)(F)C4)cc(C)n3)nn2)nn1 [Polymorph D, (R)-1-(4-(6-(2-(4-(3,3-difluorocyclobutoxy)-6-methylpyridin-2-yl)acetamido)pyridazin-3-yl)-2-fluorobutyl)-N-methyl-1H-1,2,3-triazole-4-carboxamide]
- hygroscopicity (DVS result) ([2]; 25° C., 0-80% RH): non-hygroscopic
- Change of Mass, Desorption ([2]; Target % P/P0 0): 0.052%
- Change of Mass, Sorption ([2]; Target % P/P0 0): 0.000%
- Change of Mass, Desorption ([2]; Target % P/P0 10): 0.0276%
- Change of Mass, Hysteresis ([2]; Target % P/P0 10): 0.0060%
- Change of Mass, Sorption ([2]; Target % P/P0 10): 0.0216%
- Change of Mass, Desorption ([2]; Target % P/P0 20): 0.0440%
- Change of Mass, Hysteresis ([2]; Target % P/P0 20): 0.0104%
- Change of Mass, Sorption ([2]; Target % P/P0 20): 0.0336%
- Change of Mass, Desorption ([2]; Target % P/P0 30): 0.0587%
- Change of Mass, Hysteresis ([2]; Target % P/P0 30): 0.0112%
- Change of Mass, Sorption ([2]; Target % P/P0 30): 0.0474%
- Change of Mass, Desorption ([2]; Target % P/P0 40): 0.0759%
- Change of Mass, Hysteresis ([2]; Target % P/P0 40): 0.0181%
- Change of Mass, Sorption ([2]; Target % P/P0 40): 0.0578%
- Change of Mass, Desorption ([2]; Target % P/P0 50): 0.0906%
- Change of Mass, Hysteresis ([2]; Target % P/P0 50): 0.0216%
- Change of Mass, Sorption ([2]; Target % P/P0 50): 0.0690%
- Change of Mass, Desorption ([2]; Target % P/P0 60): 0.1087%
- Change of Mass, Hysteresis ([2]; Target % P/P0 60): 0.0259%
- Change of Mass, Sorption ([2]; Target % P/P0 60): 0.0828%
- Change of Mass, Desorption ([2]; Target % P/P0 70): 0.1294%
- Change of Mass, Hysteresis ([2]; Target % P/P0 70): 0.0259%
- Change of Mass, Sorption ([2]; Target % P/P0 70): 0.1035%
- Change of Mass, Desorption ([2]; Target % P/P0 80): 0.1527%
- Change of Mass, Hysteresis ([2]; Target % P/P0 80): 0.0190%
- Change of Mass, Sorption ([2]; Target % P/P0 80): 0.1337%
- Change of Mass, Desorption ([2]; Target % P/P0 90): 0.1768%
- Change of Mass, Sorption ([2]; Target % P/P0 90): 0.1768%
- form transformation after DVS (XRPD overlay) ([2]; after DVS 0-90-0% RH): no form transformation
- water sorption ([2]; from 0-80% RH, 25° C.): 0.1%
